Where two headings read alike, the source gives them in different places.
Columns and labels:
cells [1] = test: Direct cytotoxicity, Neutral Red Uptake assay
[2] = Displacement of metals from EDTA complexes by physiological saline; format: physicochemical
Procedure: Adding saline to the suspension of Ag4(EDTA), the suspension quickly precipitated a solid (AgCl). The precipitate was filtered off, washed with deionized water 4 times; and then dried in a vacuum oven at 50° C. in a dark flask to avoid exposure to direct light.
The displacement experiment described above was repeated for compounds 1-4 to provide the percent of the displacement of silver, copper, zinc from the EDTA complexes by physiological saline.

cells [3] = test: Indirect cytotoxicity, agar diffusion method
S. aureus biofilms [4] = test: CDC bioreactor biofilm LR/kill, EDTA compounds at 100 ppm silver; format: cell-based; conditions: 100 ppm of silver, exposed 24 hours
Procedure: (§1) Microbial cultures were exposed to compounds for 24 hours. Compounds were diluted according to 100 ppm of silver. Biofilms were formed using the CDC bioreactor. Samples were performed in triplicate.

P. aeruginosa biofilms [5] = test: as above; format: cell-based; conditions: 100 ppm of silver, exposed 24 hours
Procedure: as §1

[6] = system: P. aeruginosa 24-hour CDC biofilms; test: Colonies after exposure of 24-hour CDC biofilms to EDTA compounds; format: cell-based
cells [7] = system: cells
[8] = system: S. aureus 24-hour CDC biofilms; test: Colonies after exposure of 24-hour CDC biofilms to EDTA compounds; format: cell-based
cells [9] = system: cells; remark: listed apart in the source
[10] = system: P. aeruginosa 24-hour biofilm
Procedure: (§2) Minimum inhibitory concentration (MIC), minimum biocidal concentration (MBC) and minimum biofilm eradication (MBEC) were determined. Values represent a percentage of the stock antimicrobial solution (8%).

[11] = system: S. aureus 24-hour biofilm
Procedure: as §2

S. aureus biofilms [12] = conditions: 4%
Procedure: (§3) The Mean Log10 density of untreated controls was calculated (±standard deviation).

P. aeruginosa biofilms [13] = conditions: 4%
Procedure: as §3

[14] = system: S. epidermidis ATCC 35984 biofilm; test: MBEC model (ASTM E2799), liquid formulas; format: cell-based; conditions: 4%, treated 24 hours
Procedure: (§4) The MBEC model (ASTM E2799) was used to assess the anti-biofilm efficacy of the liquid formulas. Biofilms were grown on polystyrene pegs in the MBEC model for either 24 or 48 hours before treatment. Using the liquid form of the EDTA complexes 24- and 48-hour biofilms were tested (Table 20).
(§5) 24- and 48-hour biofilms were formed using MBEC plate method and treated for 24 hours. Technical replicates n=3. Log reduction (LR) values show±standard error (SE) of LR value.

[15] = system: P. aeruginosa NCTC 10662 biofilm; test: MBEC model (ASTM E2799), liquid formulas; format: cell-based; conditions: 4%, treated 24 hours; for LR: hydrate
Procedure: as §4, §5

[16] = system: S. aureus MRSA BAA-43 biofilm; test: MBEC model (ASTM E2799), liquid formulas; format: cell-based; conditions: 4%, treated 24 hours
Procedure: as §4, §5

[17] = system: E. faecalis ATCC 29212 biofilm; test: MBEC model (ASTM E2799), liquid formulas; format: cell-based; conditions: 4%, treated 24 hours
Procedure: as §4, §5

[18] = system: S. aureus ATCC 29213 biofilm; test: MBEC model (ASTM E2799), liquid formulas; format: cell-based; conditions: 4%, treated 24 hours
Procedure: as §4, §5

[19] = 24-Hour Biofilms, Treatment Time 1
[20] = 24-Hour Biofilms, Treatment Time 5
[21] = 24-Hour Biofilms, Treatment Time 15
[22] = 72-Hour Biofilms, Treatment Time 1
[23] = 72-Hour Biofilms, Treatment Time 5
[24] = 72-Hour Biofilms, Treatment Time 15

## O=C([O-])CN(CCN(CC(=O)[O-])CC(=O)[O-])CC(=O)[O-].[Ag+].[Cu+2].[Na+] [Compound 1, AgCuNaEDTA]
Cells [1]; 25 ppm
  Interpretation: Cytotoxic (if the percentage viability is less than 70% of the untreated control, then the substance is considered cytotoxic)
  Percentage of Control/Percentage Viability (%): 51.54 ± 9.44%
Cells [1]; 50 ppm
  Interpretation: Cytotoxic (if the percentage viability is less than 70% of the untreated control, then the substance is considered cytotoxic)
  Percentage of Control/Percentage Viability (%): 53.66 ± 9.48%
Cells [1]; 100 ppm
  Interpretation: Cytotoxic (if the percentage viability is less than 70% of the untreated control, then the substance is considered cytotoxic)
  Percentage of Control/Percentage Viability (%): 52.57 ± 8.97%
[2]
  Displacement (%) Copper: 53.49 ± 5.56%
  Displacement (%) Silver: 81.37 ± 4.29%
Cells [3]; 25 ppm
  Lysis Index: 1
  Zone Index: 2
Cells [3]; 50 ppm
  Lysis Index: 1
  Zone Index: 3
Cells [3]; 100 ppm
  Lysis Index: 1
  Zone Index: 3
S. aureus biofilms [4]
  Kill %: 100%
P. aeruginosa biofilms [5]
  Kill %: 99.99%
  LR: 3.88 ± 0.15
P. aeruginosa biofilms [5]; listed as Ag/Cu/NaEDTA
  LR: 3.5

## O=C([O-])CN(CCN(CC(=O)[O-])CC(=O)[O-])CC(=O)[O-].[Ag+].[Na+].[Zn+2] [Compound 3, AgZnNaEDTA]
[6]
  Number of colonies detected: 0 Cfu/ml
Cells [7]
  percentage viability: 46.46-63.08%
[2]
  Displacement (%) Silver: 82.32 ± 5.63%
  Displacement (%) Zinc: 47.33 ± 13.29 %
[8]
  Number of colonies detected: 0 Cfu/ml
Cells [3]; 25 ppm
  Lysis Index: 1
  Zone Index: 2
Cells [3]; 50 ppm
  Lysis Index: 1
  Zone Index: 2
Cells [3]; 100 ppm
  Lysis Index: 1
  Zone Index: 3
S. aureus biofilms [4]
  Kill %: 100%
P. aeruginosa biofilms [5]
  Kill %: 99.97%
  LR: 3.51 ± 0.04
P. aeruginosa biofilms [5]; listed as Ag/Zn/NaEDTA
  LR: 3.5

## Oc1ccccc1 [Phenol]
Cells [9]
  Lysis Index: 3
  Zone Index: 5

## O=C([O-])CN(CCN(CC(=O)[O-])CC(=O)[O-])CC(=O)[O-].[Cu+2].[Na+].[Na+] [Cu—Na-EDTA, reference compound]
[6]
  Number of colonies detected: 0 Cfu/ml
[8]
  Number of colonies detected: 0 Cfu/ml

## O=C([O-])CN(CCN(CC(=O)[O-])CC(=O)[O-])CC(=O)[O-].[Ag+].[Ag+].[Cu+2] [Compound 2, Ag2CuEDTA]
[6]
  Number of colonies detected: 0 Cfu/ml
Cells [1]; 25 ppm
  Interpretation: Non cytotoxic (if the percentage viability is less than 70% of the untreated control, then the substance is considered cytotoxic)
  Percentage of Control/Percentage Viability (%): 72.21 ± 3.74%
Cells [1]; 50 ppm
  Interpretation: Non cytotoxic (if the percentage viability is less than 70% of the untreated control, then the substance is considered cytotoxic)
  Percentage of Control/Percentage Viability (%): 72.01 ± 7.41%
Cells [1]; 100 ppm
  Interpretation: Non cytotoxic (if the percentage viability is less than 70% of the untreated control, then the substance is considered cytotoxic)
  Percentage of Control/Percentage Viability (%): 72.09 ± 17.57%
[2]
  Displacement (%) Copper: 41.37 ± 6.92%
  Displacement (%) Silver: 77.99 ± 3.90%
[8]
  Number of colonies detected: 0 Cfu/ml
Cells [3]; 25 ppm
  Lysis Index: 1
  Zone Index: 2
Cells [3]; 50 ppm
  Lysis Index: 1
  Zone Index: 2
Cells [3]; 100 ppm
  Lysis Index: 1
  Zone Index: 2
S. aureus biofilms [4]
  Kill %: 99.99%
  LR: 4.0 ± 0.20
P. aeruginosa biofilms [5]
  Kill %: 99.95%
  LR: 3.31 ± 0.01

## O.O=C([O-])CN(CCN(CC(=O)[O-])CC(=O)[O-])CC(=O)[O-].[Na+].[Na+].[Na+].[Na+] [Tetrasodium EDTA, ethylenediaminetetraacetic acid tetrasodium salt hydrate]
[10]; 1 min
  MBC: 50 percentage of the stock antimicrobial solution (8%)
  MIC: 25 percentage of the stock antimicrobial solution (8%)
[10]; 30 min
  MBC: 50 percentage of the stock antimicrobial solution (8%)
  MIC: 12.5 percentage of the stock antimicrobial solution (8%)
[10]; 1 h
  MBC: 25 percentage of the stock antimicrobial solution (8%)
  MBEC: 6.25 percentage of the stock antimicrobial solution (8%)
  MIC: 25 percentage of the stock antimicrobial solution (8%)
[10]; 24 h
  MBC: 6.25 percentage of the stock antimicrobial solution (8%)
  MBEC: 6.25 percentage of the stock antimicrobial solution (8%)
  MIC: 6.25 percentage of the stock antimicrobial solution (8%)
[11]; 1 min
  MBC: 50 percentage of the stock antimicrobial solution (8%)
  MIC: 25 percentage of the stock antimicrobial solution (8%)
[11]; 30 min
  MBC: 50 percentage of the stock antimicrobial solution (8%)
  MIC: 12.5 percentage of the stock antimicrobial solution (8%)
[11]; 1 h
  MBC: 25 percentage of the stock antimicrobial solution (8%)
  MBEC: 6.25 percentage of the stock antimicrobial solution (8%)
  MIC: 25 percentage of the stock antimicrobial solution (8%)
[11]; 24 h
  MBC: 6.25 percentage of the stock antimicrobial solution (8%)
  MBEC: 6.25 percentage of the stock antimicrobial solution (8%)
  MIC: 6.25 percentage of the stock antimicrobial solution (8%)
S. aureus biofilms [12]; [19]
  Kill %: 97.41%
  LR: 1.59 ± 1.56
S. aureus biofilms [12]; [20]
  Kill %: 59.90%
  LR: 0.40 ± 0.05
S. aureus biofilms [12]; [21]
  Kill %: 80.51%
  LR: 0.71 ± 0.11
S. aureus biofilms [12]; [22]
  Kill %: 54.09%
  LR: 0.34 ± 0.37
S. aureus biofilms [12]; [23]
  Kill %: 79.86%
  LR: 0.70 ± 0.05
S. aureus biofilms [12]; [24]
  Kill %: 80.25%
  LR: 0.70 ± 0.02
P. aeruginosa biofilms [13]; [19]
  Kill %: 83.018%
  LR: 0.77 ± 0.08
P. aeruginosa biofilms [13]; [20]
  Kill %: 97.92%
  LR: 1.68 ± 0.05
P. aeruginosa biofilms [13]; [21]
  Kill %: 99.51%
  LR: 2.31 ± 0.10
P. aeruginosa biofilms [13]; [22]
  Kill %: 99.22%
  LR: 2.10 ± 0.05
P. aeruginosa biofilms [13]; [23]
  Kill %: 99.56%
  LR: 2.35 ± 0.02
P. aeruginosa biofilms [13]; [24]
  Kill %: 95.07%
  LR: 1.31 ± 0.12
[14]; 24-Hour Biofilm
  Kill %: 100%
  LR: 6.09
[14]; 48-Hour Biofilm
  Kill %: 100%
  LR: 6.41
[15]; 24-Hour Biofilm
  Kill %: 99.9998%
  LR: 5.94±3.43
[15]; 24-Hour Biofilm, listed as tEDTA
  LR: 5.94 ± 3.43
[15]; 48-Hour Biofilm
  Kill %: 99.9999%
  LR: 6.99±4.04
[15]; 48-Hour Biofilm, listed as tEDTA
  LR: 6.99 ± 4.04
[16]; 24-Hour Biofilm
  Kill %: 100%
  LR: 5.40
[16]; 48-Hour Biofilm
  Kill %: 100%
  LR: 6.43
[17]; 24-Hour Biofilm
  Kill %: 100%
  LR: 6.35
[17]; 48-Hour Biofilm
  Kill %: 100%
  LR: 6.40
[18]; 24-Hour Biofilm
  Kill %: 100%
  LR: 6.44
[18]; 48-Hour Biofilm
  Kill %: 100%
  LR: 6.50

Source: patent US10874108B2, “Anti-microbial compositions” (5D HEALTH PROTECTION GROUP LTD, priority 2016, dated 2020)
